Laboratory results from ChEMBL document CHEMBL1129441, “Derivatives of the triazoloquinazoline adenosine antagonist (CGS15943) are selective for the human A3 receptor subtype” (J Med Chem, 1996).

How the values were obtained:
[1] = Relative binding to rat A1 and human A3 adenosine receptors (ratio of IC50)
Adenosine receptor A2a [2] = target: T1, Adenosine receptor A2a (Rattus norvegicus, UniProt P30543); assay: Displacement of [3H]-[…] from Adenosine A2A receptor of rat striatal membranes; format: cell membranes, Membrane
T1 sequence (P30543 whole entry): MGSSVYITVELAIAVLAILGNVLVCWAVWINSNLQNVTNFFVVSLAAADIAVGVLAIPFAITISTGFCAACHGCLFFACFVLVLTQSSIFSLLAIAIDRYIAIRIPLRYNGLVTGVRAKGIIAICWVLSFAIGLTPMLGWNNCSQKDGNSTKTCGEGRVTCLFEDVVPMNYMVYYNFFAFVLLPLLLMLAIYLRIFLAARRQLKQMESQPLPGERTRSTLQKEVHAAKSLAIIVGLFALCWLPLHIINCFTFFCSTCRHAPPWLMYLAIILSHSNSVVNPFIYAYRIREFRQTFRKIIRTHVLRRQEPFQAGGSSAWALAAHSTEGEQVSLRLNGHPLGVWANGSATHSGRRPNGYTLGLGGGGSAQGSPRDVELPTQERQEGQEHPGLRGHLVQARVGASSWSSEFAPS

Adenosine receptor A3 [3] = target: T2, Adenosine receptor A3 (Homo sapiens, UniProt P0DMS8); assay: biochemical
T2 sequence (P0DMS8 whole entry): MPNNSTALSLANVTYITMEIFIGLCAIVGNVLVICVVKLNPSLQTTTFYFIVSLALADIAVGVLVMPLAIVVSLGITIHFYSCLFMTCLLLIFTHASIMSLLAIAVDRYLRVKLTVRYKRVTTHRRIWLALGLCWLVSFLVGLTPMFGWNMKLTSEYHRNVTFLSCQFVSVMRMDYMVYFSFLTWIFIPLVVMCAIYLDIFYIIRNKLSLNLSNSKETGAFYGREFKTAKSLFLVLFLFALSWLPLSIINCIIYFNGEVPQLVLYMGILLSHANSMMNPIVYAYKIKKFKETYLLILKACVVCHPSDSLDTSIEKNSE
Description: In vitro binding affinity at human Adenosine A3 receptor from HEK293 cells by [125I]AB-MECA displacement.

[4] = Relative binding to rat A2A and human A3 adenosine receptors (ratio of IC50)
Adenosine receptor A1 [5] = target: T3, Adenosine receptor A1 (Rattus norvegicus, UniProt P25099); assay: Displacement of [3H]-(R)-PIA from Adenosine A1 receptor of rat cerebral cortex membranes; format: cell membranes, Membrane
T3 sequence (P25099 whole entry): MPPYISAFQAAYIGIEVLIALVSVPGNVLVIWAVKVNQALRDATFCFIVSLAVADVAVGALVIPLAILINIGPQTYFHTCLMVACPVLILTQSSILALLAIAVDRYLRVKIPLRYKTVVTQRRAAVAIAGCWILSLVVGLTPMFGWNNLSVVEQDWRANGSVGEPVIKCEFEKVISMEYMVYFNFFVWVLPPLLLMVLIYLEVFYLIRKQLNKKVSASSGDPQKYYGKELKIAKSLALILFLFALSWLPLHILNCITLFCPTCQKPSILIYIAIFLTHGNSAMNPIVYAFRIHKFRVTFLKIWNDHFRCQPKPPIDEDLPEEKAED

Adenosine receptor A3 [6] = target: T4, Adenosine receptor A3 (Rattus norvegicus, UniProt P28647)
T4 sequence (P28647 whole entry): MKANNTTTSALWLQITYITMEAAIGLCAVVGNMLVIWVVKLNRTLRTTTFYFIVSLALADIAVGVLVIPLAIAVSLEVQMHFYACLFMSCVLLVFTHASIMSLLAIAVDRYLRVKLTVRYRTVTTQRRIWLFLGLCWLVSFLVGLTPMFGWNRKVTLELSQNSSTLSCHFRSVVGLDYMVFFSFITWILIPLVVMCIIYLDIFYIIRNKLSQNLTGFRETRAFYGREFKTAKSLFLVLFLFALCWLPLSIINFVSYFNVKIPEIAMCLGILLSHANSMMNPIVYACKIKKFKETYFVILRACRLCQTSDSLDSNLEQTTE
Description: Binding affinity for Adenosine A3 receptor from rat striatal membranes

Adenosine receptor A2a [7] = target: T1, Adenosine receptor A2a; assay: (§1) Binding affinity for Adenosine A2A receptor from rat striatal membranes using [3H]-[…]
Adenosine receptor A1 [8] = target: T3, Adenosine receptor A1; assay: Binding affinity for Adenosine A1 receptor from rat cerebral cortex membranes using [3H](R)-PIA; format: tissue-based
[9] = target: Adenosine receptor A2a (Rattus norvegicus) (UniProt P30543); assay: as §1; details: concentration not given here
Adenosine receptor A2a (Rattus norvegicus), sequence (P30543 whole entry): as the sequence (P30543 whole entry) above

[10] = target: T5, Adenosine receptor A1 (Rattus norvegicus) (UniProt P25099); assay: Binding affinity for Adenosine A1 receptor from rat cerebral cortex membranes using [3H]-(R)-PIA; format: tissue-based; details: concentration not given here
T5 sequence (whole entry): T3 sequence (P25099 whole entry)

Adenosine receptor A1 [11] = target: T3, Adenosine receptor A1; assay: Binding affinity for A1 receptors from rat cerebral cortex membranes using [3H]-(R(-PIA; format: tissue-based

CC(C)(C)OC(=O)NCCCC(=O)Nc1nc2ccc(Cl)cc2c2nc(-c3ccco3)nn12
Ratio [1]: 2.8 | Ki (Adenosine receptor A2a [2]): 135 nM | Ki (Adenosine receptor A3 [3]): 32.9 nM | Ratio [4]: 4.1

Oc1nc2ccc(Cl)cc2c2nc(-c3ccco3)nn12
Ratio [1]: 15 | Ki (Adenosine receptor A1 [5]): 3950 nM | Ki (Adenosine receptor A2a [2]): 4380 nM | Ratio [4]: 17

CC(=O)Nc1nc2ccc(Cl)cc2c2nc(-c3ccco3)nn12
Ki (Adenosine receptor A2a [2]): 36.3 nM

O=C(Nc1nc2ccc(Cl)cc2c2nc(-c3ccco3)nn12)c1cccc(I)c1
Ratio [1]: 8.4 | Ki (Adenosine receptor A1 [5]): 200 nM | Ki (Adenosine receptor A2a [2]): 310 nM | Ki (Adenosine receptor A3 [3]): 23.8 nM | Ratio [4]: 13

Nc1nc2ccc(Cl)cc2c2nc(-c3ccco3)nn12 [CGS-15943]
Ki (Adenosine receptor A3 [6]): 100000 nM | IC50 (Adenosine receptor A2a [7]): 3.3 nM

NCCCC(=O)Nc1nc2ccc(Cl)cc2c2nc(-c3ccco3)nn12
Ratio [1]: 0.14 | Ki (Adenosine receptor A2a [2]): 14.4 nM | Ki (Adenosine receptor A3 [3]): 80.8 nM | Ratio [4]: 0.18

CCCC(=O)Nc1nc2ccc(Cl)cc2c2nc(-c3ccco3)nn12
Ratio [1]: 2.2 | Ki (Adenosine receptor A2a [2]): 37.6 nM | Ratio [4]: 2.6

Nc1nc2ccc(Cl)cc2c2nc(-c3ccc(Br)o3)nn12
IC50 (Adenosine receptor A2a [7]): 531 nM | Ki (Adenosine receptor A3 [3]): 64 nM

Cc1ccc(-c2oc3ccc(Cl)cc3c(=O)c2Cl)c(OC(C)C)c1
Ki (Adenosine receptor A1 [8]): > 100000 nM | IC50 (Adenosine receptor A2a [7]): > 100 nM

O=C(Nc1nc2ccc(Cl)cc2c2nc(-c3ccco3)nn12)c1ccccc1
Ratio [1]: 220 | Ki (Adenosine receptor A1 [5]): 680 nM | Ki (Adenosine receptor A2a [2]): 273 nM | Ki (Adenosine receptor A3 [3]): 3.03 nM | Ratio [4]: 90

CC(C)(C)C(=O)Nc1nc2ccc(Cl)cc2c2nc(-c3ccco3)nn12
Ratio [1]: 0.84 | Ki (Adenosine receptor A2a [2]): 88.8 nM | Ratio [4]: 0.36

O=C(Nc1nc2ccc(Cl)cc2c2nc(-c3ccc(Br)o3)nn12)c1ccccc1
inhibition [9]: < 10% | inhibition [10]: < 10%

CCCCC(=O)Nc1nc2ccc(Cl)cc2c2nc(-c3ccco3)nn12
Ratio [1]: 1.3 | Ki (Adenosine receptor A2a [2]): 48.8 nM | Ratio [4]: 2.3

CCC(=O)Nc1nc2ccc(Cl)cc2c2nc(-c3ccco3)nn12
Ratio [1]: 40 | Ratio [4]: 14

CCCn1c(=O)n2nc(-c3ccco3)nc2c2cc(Cl)ccc21
Ratio [1]: 1 | Ki (Adenosine receptor A1 [5]): 1850 nM | Ki (Adenosine receptor A2a [2]): 6960 nM | Ki (Adenosine receptor A3 [3]): 1810 nM | Ratio [4]: 3.8

CCOC(=O)C1=C(c2ccccc2)Nc2cc(C)c(C(=O)OCC)cc2C1/C=C/c1ccccc1 (stereo not given)
IC50 (Adenosine receptor A2a [7]): 4.77 nM | IC50 (Adenosine receptor A1 [11]): 5.93 nM | Ki (Adenosine receptor A3 [3]): 0.11 nM
